Eleven compounds from patent US20180002319A1, “MACROCYCLIC PICOLINAMIDE COMPOUNDS WITH FUNGICIDAL ACTIVITY” (DOW AGROSCIENCES LLC, priority 2014, published 2018) can be followed below.

What all share (type): in vivo
One experiment deals with Leptosphaeria nodorum. Nature of the experiment: Wheat Glume Blotch (LEPTNO) fungicidal activity. To be noted: Parastagonospora nodorum, 24 h, 1DP (1 Day Protectant), read-out: LEPTNO Disease Control. The procedure:
Technical grades of materials were dissolved in acetone, which were then mixed with nine volumes of H2O containing 110 ppm Triton X-100. The fungicide solutions were applied onto wheat seedlings using an automated booth sprayer to run-off. All sprayed plants were allowed to air dry prior to further handling. All fungicides were evaluated using the aforementioned method for their activity vs. all target diseases, unless stated otherwise. Wheat leaf blotch and brown rust activity were also evaluated using track spray applications, in which case the fungicides were formulated as EC formulations, containing 0.1% Trycol 5941 in the spray solutions. Wheat plants (variety Yuma) were grown from seed in a greenhouse in 50% mineral soil/50% soil-less Metro mix until the first leaf was fully emerged, with 7-10 seedlings per pot. These plants were inoculated with an aqueous spore suspension of Zymoseptoria tritici either prior to or after fungicide treatments. After inoculation the plants were kept in 100% relative humidity (one day in a dark dew chamber followed by two to three days in a lighted dew chamber at 20° C.) to permit spores to germinate and infect the leaf. The plants were then transferred to a greenhouse set at 20° C. for disease to develop. When disease symptoms were fully expressed on the 1st leaves of untreated plants, infection levels were assessed on a scale of 0 to 100 percent disease severity. Percent disease control was calculated using the ratio of disease severity on treated plants relative to untreated plants. Example C: Evaluation of Fungicidal Activity: Wheat Glume Blotch (Leptosphaeria nodorum; Bayer Code […]) Wheat plants (variety Yuma) were grown from seed in a greenhouse in 50% mineral soil/50% soil-less Metro mix until the first leaf was fully emerged, with 7-10 seedlings per pot. These plants were inoculated with an aqueous spore suspension of Leptosphaeria nodorum 24 hr after fungicide treatments. After inoculation the plants were kept in 100% relative humidity (one day in a dark dew chamber followed by two days in a lighted dew chamber at 20° C.) to permit spores to germinate and infect the leaf. The plants were then transferred to a greenhouse set at 20° C. for disease to develop. Fungicide formulation, application and disease assessment followed the procedures as described in the Example A.

The test system of another experiment is Uncinula necator. Nature of the experiment: Grape Powdery Mildew (UNCINE) fungicidal activity. To be noted: Erysiphe necator, 24 h, 1DP (1 Day Protectant), read-out: UNCINE Disease Control. As for the experimental part: Technical grades of materials were dissolved in acetone, which were then mixed with nine volumes of H2O containing 110 ppm Triton X-100. The fungicide solutions were applied onto wheat seedlings using an automated booth sprayer to run-off. All sprayed plants were allowed to air dry prior to further handling. All fungicides were evaluated using the aforementioned method for their activity vs. all target diseases, unless stated otherwise. Wheat leaf blotch and brown rust activity were also evaluated using track spray applications, in which case the fungicides were formulated as EC formulations, containing 0.1% Trycol 5941 in the spray solutions. Wheat plants (variety Yuma) were grown from seed in a greenhouse in 50% mineral soil/50% soil-less Metro mix until the first leaf was fully emerged, with 7-10 seedlings per pot. These plants were inoculated with an aqueous spore suspension of Zymoseptoria tritici either prior to or after fungicide treatments. After inoculation the plants were kept in 100% relative humidity (one day in a dark dew chamber followed by two to three days in a lighted dew chamber at 20° C.) to permit spores to germinate and infect the leaf. The plants were then transferred to a greenhouse set at 20° C. for disease to develop. When disease symptoms were fully expressed on the 1st leaves of untreated plants, infection levels were assessed on a scale of 0 to 100 percent disease severity. Percent disease control was calculated using the ratio of disease severity on treated plants relative to untreated plants. Example E: Evaluation of Fungicidal Activity: Grape Powdery Mildew (Uncinula necator; Bayer Code […]) Grape seedlings (variety Carignane) were grown in soil-less Metro mix, with one plant per pot, and used in the test when approximately one month old. Plants were inoculated 24 hr after fungicide treatment by shaking spores from infected leaves over test plants. Plants were maintained in a greenhouse set at 20° C. until disease was fully developed. Fungicide formulation, application and disease assessment on the sprayed leaves followed the procedures as described in the Example A.

In experiment [1] the test system is Blumeria graminis f.sp. hordei. Nature of the experiment: Barley Powdery Mildew (ERYSGH) fungicidal activity. Conditions: 24 h, 1DP (1 Day Protectant), read-out: ERYSGH Disease Control. The procedure: Technical grades of materials were dissolved in acetone, which were then mixed with nine volumes of H2O containing 110 ppm Triton X-100. The fungicide solutions were applied onto wheat seedlings using an automated booth sprayer to run-off. All sprayed plants were allowed to air dry prior to further handling. All fungicides were evaluated using the aforementioned method for their activity vs. all target diseases, unless stated otherwise. Wheat leaf blotch and brown rust activity were also evaluated using track spray applications, in which case the fungicides were formulated as EC formulations, containing 0.1% Trycol 5941 in the spray solutions. Wheat plants (variety Yuma) were grown from seed in a greenhouse in 50% mineral soil/50% soil-less Metro mix until the first leaf was fully emerged, with 7-10 seedlings per pot. These plants were inoculated with an aqueous spore suspension of Zymoseptoria tritici either prior to or after fungicide treatments. After inoculation the plants were kept in 100% relative humidity (one day in a dark dew chamber followed by two to three days in a lighted dew chamber at 20° C.) to permit spores to germinate and infect the leaf. The plants were then transferred to a greenhouse set at 20° C. for disease to develop. When disease symptoms were fully expressed on the 1st leaves of untreated plants, infection levels were assessed on a scale of 0 to 100 percent disease severity. Percent disease control was calculated using the ratio of disease severity on treated plants relative to untreated plants. Example J: Evaluation of Fungicidal Activity: Barley Powdery Mildew (Blumeria graminis f.sp. hordei; Synonym: Erysiphe graminis f.sp. hordei; Bayer Code […]) Barley seedlings (variety Harrington) were propagated in soil-less Metro mix, with each pot having 8 to 12 plants, and used in the test when first leaf was fully emerged. Test plants were inoculated by dusting with infected stock plants 24 hr after fungicide treatments. After inoculation the plants were kept in a greenhouse set at 20° C. for disease to develop. Fungicide formulation, application and disease assessment on the sprayed leaves followed the procedures as described in the Example A.

Each structure is given as a SMILES string.

Regarding `CCCCO[C@H]1CCOC[C@H](NC(=O)c2nccc(OC)c2OCOC(C)=O)C(=O)O[C@@H](C)[C@@H]1OCc1ccccc1` [Compound 2], the results for the pest or weed control at 100 ppm (with Leptosphaeria nodorum; with Uncinula necator; in experiment [1]) were greater than 80%, less than 80% and less than 80%, respectively.

On to `CCCCO[C@H]1CCOC[C@H](NC(=O)c2nccc(OC)c2OCOC(C)=O)C(=O)O[C@@H](C)[C@@H]1OC(=O)C(C)C` [Compound 3], for which the pest or weed control at 100 ppm with Leptosphaeria nodorum is greater than 80%; in the experiment with Uncinula necator, less than 80%; in experiment [1] it was less than 80%.

On to `CCCCO[C@H]1CCOC[C@H](NC(=O)c2nccc(OC)c2OCOC(C)=O)C(=O)O[C@@H](C)[C@@H]1OC(=O)c1ccccc1` [Compound 4], for which the pest or weed control at 100 ppm was greater than 80% in the experiment with Leptosphaeria nodorum, less than 80% with Uncinula necator and less than 80% in experiment [1].

Take `CCCCO[C@H]1CCOC[C@H](NC(=O)c2nccc(OC)c2OCOC(C)=O)C(=O)O[C@@H](C)[C@@H]1OC(=O)C1CC1` [Compound 5]: the pest or weed control at 100 ppm is greater than 80% in the experiment with Leptosphaeria nodorum and less than 80% with Uncinula necator.

As to `COc1ccnc(C(=O)N[C@H]2COCC[C@@H](OCC(C)C)[C@@H](OCC(C)C)[C@H](C)OC2=O)c1OCOC(C)=O` [Compound 6], the pest or weed control at 100 ppm in the experiment on Leptosphaeria nodorum is greater than 80%; with Uncinula necator it was less than 80%.

As to `CCCCCO[C@H]1[C@H](C)OC(=O)[C@@H](NC(=O)c2nccc(OC)c2OCOC(C)=O)CCCC[C@@H]1Oc1ccccc1` [Compound 17], the pest or weed control at 100 ppm with Uncinula necator was greater than 80%; in experiment [1], less than 80%.

As to `CCCO[C@H]1[C@H](C)OC(=O)[C@@H](NC(=O)c2nccc(OC)c2OCOC(C)=O)CCCC[C@@H]1Oc1ccccc1` [Compound 18], the pest or weed control at 100 ppm (with Uncinula necator; in experiment [1]) was less than 80% throughout.

On to `COc1ccnc(C(=O)N[C@H]2CCCC[C@H](Oc3ccccc3)[C@@H](Oc3ccccc3)[C@H](C)OC2=O)c1OCOC(C)=O` [Compound 19], for which the pest or weed control at 100 ppm (in the experiment with Uncinula necator; in experiment [1]) was less than 80% each time.

On to `COc1ccnc(C(=O)N[C@H]2COCC[C@H](Cc3ccccc3)[C@@H](OCC(C)C)[C@H](C)OC2=O)c1OCOC(C)=O` [Compound 20], for which the values for the pest or weed control at 100 ppm (with Leptosphaeria nodorum; in the experiment on Uncinula necator; in experiment [1]) were greater than 80%, greater than 80% and less than 80%, respectively.

With `COc1ccnc(C(=O)N[C@H]2COCC[C@H](Cc3ccccc3)[C@@H](OCC(C)C)[C@H](C)OC2=O)c1OC(C)=O` [Compound 21], the pest or weed control at 100 ppm was greater than 80% with Leptosphaeria nodorum, greater than 80% in the experiment on Uncinula necator and less than 80% in experiment [1].

With `COc1ccnc(C(=O)N[C@H]2CCOC[C@H](Oc3ccccc3)[C@@H](Oc3ccccc3)[C@H](C)OC2=O)c1OCOC(C)=O` [Compound 37], the pest or weed control at 100 ppm in the experiment with Leptosphaeria nodorum and with Uncinula necator was greater than 80% throughout.
